From ChEMBL document CHEMBL4651402, “Screening of ~5500 FDA-approved drugs and clinical candidates for anti-SARS-CoV-2 activity” (2021) come the findings set out here.

This experiment has as its system SARS-CoV-2. The experiment in a line: microbe, parasite or virus in culture. The conditions noted are these: Severe acute respiratory syndrome coronavirus 2, Vero C1008, 48 h.

Numbered stars: 1 amine (or outer) side, 2 acyl side, 3 side chain; on linkers, the order of the positions; unused ones are H or OH. Bridge positions count the residues as written; N and C are the ends. Square brackets hold non-standard residues; d marks the D form. Peptide text beside a SMILES is read from it. * marks the point of attachment. X1 = NC1=N[C@@H]([C@H](N[*:1])C(=O)[*:2])C[C@H](O)N1; ΔAla(Z-3-ureido) = NC(=O)N/C=C(\N)C(=O)O; β3hOrn = NCCC[C@H](N)CC(=O)*; Dap = NC[C@H](N)C(=O)O

`OCc1ccccc1O[C@@H]1O[C@H](CO)[C@@H](O)[C@H](O)[C@H]1O` [SALICIN] yielded an IC50 above 20 µM. Further, under “read-out: pIC50 (converted)”, the IC50 was above 20 µM.
Take `CC1(C)O[C@@H]2C[C@H]3[C@@H]4C[C@H](F)C5=CC(=O)C=C[C@]5(C)[C@@]4(F)[C@@H](O)C[C@]3(C)[C@]2(C(=O)CO)O1` [FLUOCINOLONE ACETONIDE]: the IC50 is above 20 µM. Further, for the setting “read-out: pIC50 (converted)”, the IC50 is above 20 µM.
In turn, `Cn1cc(-c2cccc3cc(C(=O)NC(=N)N)ccc23)cn1` came in with an IC50 above 20 µM. In addition, the IC50 (read-out: pIC50 (converted)) is above 20 µM.
For the compound `NCCC[C@H](N)CC(=O)N[C@H]1CNC(=O)[C@H]([C@H]2C[C@H](O)NC(N)=N2)NC(=O)/C(=C/NC(N)=O)NC(=O)[C@H](CO)NC(=O)[C@H](CO)NC1=O` [VIOMYCIN] (β3hOrn-[Dap]SS[ΔAla(Z-3-ureido)][X1]; lactam 1-C), the IC50 was above 20 µM. In addition, for the setting “read-out: pIC50 (converted)”, the IC50 is above 20 µM.
Regarding `COc1ccc(C(=O)NC2(C(=O)O)Cc3ccccc3C2)cc1OCCc1cccc(C)c1` [FIPAXALPARANT], the IC50 was above 20 µM. In addition, the IC50 (read-out: pIC50 (converted)) is above 20 µM.
With `CCC1(C)OC(=O)N(C)C1=O` (stereo not drawn) [PARAMETHADIONE], the IC50 was above 20 µM. Also, the IC50 (read-out: pIC50 (converted)) is above 20 µM.
Compound `Cc1[nH]c2ccccc2c1CCNCc1ccc(/C=C/C(=O)NO)cc1` [PANOBINOSTAT] gave an IC50 above 20 µM. The IC50 (read-out: pIC50 (converted)) was above 20 µM.
`[N-]=[N+]=CC(=O)CC[C@H](N)C(=O)O` [6-DIAZO-5-OXO-L-NORLEUCINE] yielded an IC50 above 20 µM. Besides, under “read-out: pIC50 (converted)”, the IC50 is above 20 µM.
As for `CCN(CC)CC(C)(C)COC(=O)C(CO)c1ccccc1` (stereo not drawn) [AMPROTROPINE], the IC50 was above 20 µM. Further, the IC50 (read-out: pIC50 (converted)) was above 20 µM.
As for `O=C1c2ccccc2-c2cccc3cccc1c23` [BENZANTHRONE], the IC50 was above 20 µM. For the setting “read-out: pIC50 (converted)”, the IC50 is above 20 µM.
In the case of `O=C(N/N=C/c1ccc([N+](=O)[O-])o1)c1ccc(O)cc1` [NIFUROXAZIDE], the IC50 was above 20 µM. For the setting “read-out: pIC50 (converted)”, the IC50 is above 20 µM.
In the case of `O=c1c(-c2ccc(O)cc2)coc2cc(O)cc(O)c12` [GENISTEIN], the IC50 was above 20 µM. Besides, the IC50 (read-out: pIC50 (converted)) is above 20 µM.
The compound `CC(=O)C1CCC2C3CC[C@H]4C[C@H](O)CCC4(C)C3C(=O)CC12C` (stereo partly drawn) had an IC50 above 20 µM. For the same compound, the IC50 (read-out: pIC50 (converted)) was above 20 µM.
In the case of `C[C@@H]1O[C@@H]1P(=O)(O)O` [FOSFOMYCIN], the IC50 is above 20 µM. For the same compound, the IC50 (read-out: pIC50 (converted)) is above 20 µM.
Consider `COc1ccc2cc1Oc1cc3c(cc1OC)CC[N+](C)(C)C3Cc1ccc(cc1)Oc1c(OC)c(OC)cc3c1C(C2)[N+](C)(C)CC3` (stereo not drawn), for which the IC50 is above 20 µM. Also, the IC50 (read-out: pIC50 (converted)) is above 20 µM.
`Nc1ncc2ncn(CC3(OCP(=O)(O)O)CC3)c2n1` [BESIFOVIR] had an IC50 above 20 µM. Moreover, under “read-out: pIC50 (converted)”, the IC50 was above 20 µM.
Regarding `Nc1nc(=O)c2sc(=O)n([C@@H]3O[C@H](CO)[C@@H](O)[C@H]3O)c2[nH]1` [ISATORIBINE], the IC50 is above 25.1 µM. The IC50 (read-out: pIC50 (converted)) is above 25.1 µM.
For the compound `CC(=O)C[C@@H](c1ccccc1)c1c(O)c2ccccc2oc1=O`, the IC50 is above 20 µM. The IC50 (read-out: pIC50 (converted)) was above 20 µM.
On to `C/C=C(\C)C(=O)OC1C(OC(C)=O)C2(CO)C(O)CC3(C)C(=CCC4C5(C)CCC(OC6OC(C(=O)O)C(OC7OC(CO)C(O)C(O)C7O)C(O)C6OC6OC(CO)C(O)C(O)C6O)C(C)(CO)C5CCC43C)C2CC1(C)C` (stereo not drawn), for which the IC50 was above 20 µM. For the same compound, where the note is “read-out: pIC50 (converted)”, the IC50 was above 20 µM.
`Cc1ccc(N(CC2=NCCN2)c2cccc(O)c2)cc1` [PHENTOLAMINE] came in with an IC50 above 20 µM. The IC50 (read-out: pIC50 (converted)) is above 20 µM.
In the case of `CC/C(=C(\c1ccc(OCCN(C)C)cc1)c1cccc(O)c1)c1ccccc1`, the IC50 is above 20 µM. For the setting “read-out: pIC50 (converted)”, the IC50 is above 20 µM.
In turn, `CC[C@@H](CO)NCCN[C@@H](CC)CO` [ETHAMBUTOL] showed an IC50 above 20 µM. For the same compound, where the note is “read-out: pIC50 (converted)”, the IC50 is above 20 µM.
Consider `CC12CCC(C(C(=O)O)C1=O)C2(C)C` (stereo not drawn), for which the IC50 is above 20 µM. Moreover, the IC50 (read-out: pIC50 (converted)) was above 20 µM.
Compound `CC(C)(Oc1ccc(Cl)cc1)C(=O)O` [CLOFIBRIC ACID] came in with an IC50 above 20 µM. Also, the IC50 (read-out: pIC50 (converted)) is above 20 µM.
`CCN(CC)C(=S)S` [DITIOCARB] came in with an IC50 above 20 µM. Under “read-out: pIC50 (converted)”, the IC50 is above 20 µM.
As for `CCOC(=O)Nc1ccc(SC[C@H]2CO[C@](Cn3ccnc3)(c3ccc(Cl)cc3Cl)O2)cc1`, the IC50 is above 20 µM. Besides, the IC50 (read-out: pIC50 (converted)) is above 20 µM.
In turn, `CC(Cc1ccccc1)(NC(=O)CN)c1ccccc1` (stereo not drawn) [REMACEMIDE] came in with an IC50 above 20 µM. In addition, for the setting “read-out: pIC50 (converted)”, the IC50 was above 20 µM.
Compound `C[C@H](O)C(=O)O` [L-LACTIC ACID] gave an IC50 above 20 µM. For the setting “read-out: pIC50 (converted)”, the IC50 is above 20 µM.
`COc1ccc2cc([C@H](C)CO)ccc2c1` [NAPROXOL]: the IC50 is above 20 µM. In addition, the IC50 (read-out: pIC50 (converted)) is above 20 µM.
`COc1cc(CCc2cc(NC(=O)c3ccc(N4C[C@@H](C)N[C@@H](C)C4)cc3)n[nH]2)cc(OC)c1` [FEXAGRATINIB] displayed an IC50 above 20 µM. The IC50 (read-out: pIC50 (converted)) is above 20 µM.
In turn, `O=C(O)CC/C=C\C[C@H]1CO[C@@H](c2ccccc2Cl)O[C@H]1c1ccccc1O` returned an IC50 above 20 µM. Further, under “read-out: pIC50 (converted)”, the IC50 is above 20 µM.
`Cc1cc(Nc2cc(N3CCN(C)CC3)nc(/C=C/c3ccccc3)n2)n[nH]1` [ENMD-2076] came in with an IC50 above 20 µM. Also, the IC50 (read-out: pIC50 (converted)) is above 20 µM.
Regarding `O=C1CCc2cc(OCCCCc3nnnn3C3CCCCC3)ccc2N1` [CILOSTAZOL], the IC50 is above 20 µM. Besides, where the note is “read-out: pIC50 (converted)”, the IC50 was above 20 µM.
As to `Cn1cc(-c2cc3c(N4CCN(c5ncc([C@@](C)(N)c6ccc(F)cc6)cn5)CC4)ncnn3c2)cn1` [AVAPRITINIB], the IC50 was above 20 µM. Further, the IC50 (read-out: pIC50 (converted)) is above 20 µM.
`CCOC(=O)[C@H](CCc1ccccc1)N[C@H]1CCCN2CCC[C@@H](C(=O)O)N2C1=O` [CILAZAPRIL]: the IC50 is above 20 µM. Moreover, the IC50 (read-out: pIC50 (converted)) was above 20 µM.
Consider `CCOC(=O)C1(c2ccccc2)CCN(CCc2ccc(N)cc2)CC1` [ANILERIDINE], for which the IC50 is above 20 µM. Further, the IC50 (read-out: pIC50 (converted)) was above 20 µM.
Take `O=C(c1ccc(F)cc1)C1CCN(CCn2c(=S)[nH]c3ccccc3c2=O)CC1` [ALTANSERIN]: the IC50 was above 20 µM. Further, the IC50 (read-out: pIC50 (converted)) is above 20 µM.
In turn, `Oc1ccc(Cl)cc1` [PARACHLOROPHENOL] came in with an IC50 above 20 µM. The IC50 (read-out: pIC50 (converted)) was above 20 µM.
`Cc1ncccc1NC(=O)c1ccc2c(c1)CC[C@@H]1C[C@@](OP(=O)(O)O)(C(F)(F)F)CC[C@@]21Cc1ccccc1` [FOSDAGROCORAT] gave an IC50 above 20 µM. Moreover, the IC50 (read-out: pIC50 (converted)) is above 20 µM.
For the compound `CCOC(=O)c1ccc(N)cc1` [BENZOCAINE], the IC50 is above 20 µM. Besides, the IC50 (read-out: pIC50 (converted)) was above 20 µM.
Compound `CC(=O)N[C@@H](CC(C)C)C(=O)O` registered an IC50 above 20 µM. Besides, the IC50 (read-out: pIC50 (converted)) is above 20 µM.
Turning to `CC(=O)OCC(=O)C1(O)CCC2C3CCC4=CC(=O)C=CC4(C)C3C(O)CC21C` (stereo not drawn), the IC50 was above 20 µM. Further, the IC50 (read-out: pIC50 (converted)) was above 20 µM.
`NC1CCCCC1` [CYCLOHEXYLAMINE] displayed an IC50 above 20 µM. Besides, the IC50 (read-out: pIC50 (converted)) was above 20 µM.
Compound `CC(C)C(=O)OC[C@@]1(CCl)O[C@@H](n2ccc(N)nc2=O)[C@H](F)[C@@H]1OC(=O)C(C)C` [LUMICITABINE] came in with an IC50 above 20 µM. The IC50 (read-out: pIC50 (converted)) was above 20 µM.
